Results from patent US6242482A, “Prostaglandin compounds and derivatives thereof, compositions containing the same and method of using the same for the treatment of congestive heart failure” (priority 2000, dated 2001).
Entries after “also recorded” stand apart in the source; their conditions may differ.

Test system: mean arterial pressure and heart rate of anesthetized rats
Experiment: Systemic hemodynamic effects, intravenous, anesthetized rats (Example 5)
Assay type: in vivo, rat (male Wistar)
Experimental: The time for onset and maximal response were evaluated, as well as the time taken for the response to return to 50% of the baseline value for comparing effective lives. Among other effects, lowering of the blood pressure inside the blood vessels is beneficial for the treatment of congestive heart failure by reducing the vascular resistance blood flow, and thus the work load imposed on the heart.
Male Wistar rats were anesthetized with thiopentone sodium (INTRAVAL®, 120 mg kg^-1 i.p.). The trachea was cannulated to facilitate breathing. The right carotid artery was cannulated and connected to a pressure transducer (Spectramed P23XL), for the measurement of mean arterial pressure (MAP) and heart rate (HR) which were continuously recorded on a 4-channel Grass 7D polygraph recorder (Grass, Mass., USA). The left femoral vein or the right jugular vein was cannulated for the administration of drugs. The body temperature of the test animal was maintained at 37±1° C. by means of a rectal probe thermometer attached to a homeothermic blanket control unit (Harvard Apparatus Ltd).
After a 15 minute stabilization period, the animals were injected once intravenously with selected doses of each compound, and hemodynamic parameters were continuously monitored for three hours in order to ascertain the duration of action of the compounds under study.

[1] = i.v., Compound X 0.1 and 1 mg/kg, Compound 1 doses of b230

`CCCCC[C@H](O)CC[C@@H]1[C@H]2Cc3cccc(OCC(=O)O)c3C[C@H]2C[C@H]1O` [Compound X] was tested, and the “effective life (MAP returning to 50% of baseline value)” value (0.1 mg/kg i.v.) was “about fifteen”, the “effective life (MAP returning to 50% of baseline value)” value (1.0 mg/kg i.v.) was “about thirty” and the “decline in MAP” value (i.v.) was “immediate, dose related decline in the MAP; also recorded: substantial dose-related fall in MAP”. The “maximum decline in MAP” value [1] was “about 70 mm Hg” and the “time of maximum decline in MAP” value [1] was “within the first minute”.
